Values joined by “and” are separate entries in the source; they are usually repeats but may differ in a detail not shown here. Equal entries are not always repeated.
Tested on: 889142-216-R-J1-PDC complex spheroid viability
Assay: Anticancer human tumor 889142-216-R-J1-PDC patient-derived bladder carcinoma cell line growth inhibition [POLQ]
Settings: for viability, T/C: stronger effect = lower value
Procedure: Multicellular complex tumor spheroid response to Polymerase (POL) inhibitors (novobiocin, ART-558, RP6685) in combination with a variety of drugs and investigational agents in selected tumor cell lines
The POL inhibitors (novobiocin, ART-558, and RP6685) were evaluated both individually and in combination with standard of care and investigational anticancer small molecules within a complex spheroid model of solid tumors. . Complex spheroids include a stromal component modeled by human endothelial cells (HUVEC) and fibroblasts modeled by human mesenchymal stem cells (MSCs). The concentration ranges selected for each drug and investigational agent were based upon clinically achievable concentrations if the clinical Cmax of the agent was known.
Compounds. The drugs and investigational agents: novobiocin (NSC847541), ART-558 (NSC835418), RP-6685 (NSC848927), peposertib (NSC802822), ceralasertib (NSC780249), elimusertib (NSC800525), camonsertib (NSC841442), AZD-1390 (NSC803789), olaparib (NSC753686), talazoparib (NSC767125), rucaparib (NSC756644), sotorasib (NSC818433), MRTX-1133 (NSC836407), SN-38 (NSC673596), topotecan (NSC609699), epotoside (NSC141540), doxorubicin (NSC123127), gemcitabine (NSC613327), 5-fluorouracil (NSC19893), paclitaxel (NSC125973), vemurafenib (NSC761431), MSA-2 (NSC828583), SN-011 (NSC837082), adavosertib (NSC754352), prexasertib (NSC758257), carboplatin (NSC241240) and oxaliplatin (NSC266046), were obtained from the National Cancer Institute (NCI) Developmental Therapeutics Program Chemical Repository (21). The FDA-approved anticancer drug set is available from the Developmental Therapeutics Program at https://dtp.cancer.gov/organization/dscb/obtaining/. […] The stock solutions were prepared in dimethyl sulfoxide (DMSO, Sigma-Aldrich, St. Louis, MO, cat. D2650), except for the platinum compounds which were prepared in saline (Quality Biological, Gaithersburg, MD, cat. 114-055-101), at 800-fold the tested concentration and stored at -70 degrees C prior to their use. All drugs and investigational agents were tested over a range starting from a high concentration at or near the clinical Cmax and decreasing in half-log increments. If the clinical Cmax for an agent had not been determined, the highest concentration tested was 10 microM, except for SN-38, which was tested at a high concentration of 1 microM.
Cell Culture. All cells were maintained in an incubator at 37 degrees C and 5% CO2 with 95% humidity. The PDC lines were cultured according to standard operating procedures established by the NCI PDMR (https://pdmr.cancer.gov). Table 3 of the manuscript, lists the cell lines along with the number of the three cell types plated to form the mct-spheroids and media for tumor cell growth. After thawing, all PDC lines, except 997537-175-T-J1-PDC and 415267-285-R-J2-PDC, were cultured in Matrigel-coated flasks prepared with a working solution of 1X Ham's F-12 nutrient mix, without supplementation (Thermo Fisher Scientific, cat. 11765054), 100 U/mL penicillin-streptomycin (Thermo Fisher Scientific, cat. 15140122), and 2.5% Matrigel (Corning Inc., Corning, NY, cat. 354248) for the first three passages. The two PDC lines 997537-175-T-J1-PDC and 415267-285-R-J2-PDC were cultured on uncoated flasks. The 857933-349-R-J2-PDC line was cultured in 6C/Colon 1B media containing advanced DMEM/F-12 (Thermo Fisher Scientific, cat. 12634028), 10 mM HEPES (Thermo Fisher Scientific, cat. 15630080), 1X GlutaMAX supplement (Thermo Fisher Scientific, cat. 35050061), 0.1 mg/mL primocin (InvivoGen, San Diego, CA, cat. ant-pm-2), 10% defined fetal bovine serum, heat inactivated (HyClone Laboratories Inc., Logan, UT, cat. SH30070.03HI), 50% L-WRN conditioned media (ATCC, cat. CRL-3276), 1.25 mM N-Acetyl-L-cysteine (Sigma-Aldrich, cat. A9165), 10 mM nicotinamide (Sigma-Aldrich, cat. N0636), 1X B-27 supplement (Thermo Fisher Scientific, cat. 17504044), 1X N-2 supplement (Thermo Fisher Scientific, cat. […]
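Further: spheroids exposed to compounds for seven days.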
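Wherever viability, T/C is given: 100% = DMSO vehicle control viability.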

With `CCc1c2c(nc3ccc(O)cc13)-c1cc3c(c(=O)n1C2)COC(=O)[C@]3(O)CC` the viability, T/C (compound 0.00316 µM) was 58.4% and 64.9%, the viability, T/C (compound 0.01 µM) was 50.7% and 50.6% and the viability, T/C (compound 0.0316 µM) was 40.2% and 47.8%. For the same compound, the viability, T/C (compound 0.1 µM) was 33.7% and 31.8%, the viability, T/C (compound 0.316 µM) was 29.5% and 27.7% and the viability, T/C (compound 1 µM) was 11.7% and 9.45%. The IC50 (curve of compound) was 0.0109 µM and 0.0173 µM.
For `CC1COCCN1c1cc(-c2ccnn2C)c2ccnc(-c3ccn[nH]3)c2n1` (centres undefined) + Nc1ccc(C#CCN(C(=O)Cc2ncc(C(F)(F)F)cc2C(F)(F)F)c2ccc(F)cc2)nn1, the IC50 (curve of first compound, second compound 0.0316 µM) was 0.386 µM, the IC50 (curve of first compound, second compound 0.1 µM) was 0.349 µM and the IC50 (curve of first compound, second compound 0.316 µM) was 0.349 µM. The IC50 (curve of first compound, second compound 1 µM) was 0.133 µM, the IC50 (curve of first compound, second compound 3.16 µM) was 0.353 µM and the IC50 (curve of first compound, second compound 10 µM) was 0.557 µM. The viability, T/C (second compound 0.0316 µM, first compound 0.0316 µM) was 69.5%, the viability, T/C (second compound 0.0316 µM, first compound 0.1 µM) was 60.1% and the viability, T/C (second compound 0.0316 µM, first compound 0.316 µM) was 53.7%. For the same compound, the viability, T/C (second compound 0.0316 µM, first compound 1 µM) was 41%, the viability, T/C (second compound 0.0316 µM, first compound 3.16 µM) was 32.8% and the viability, T/C (second compound 0.0316 µM, first compound 10 µM) was 32.7%. The viability, T/C (second compound 0.1 µM, first compound 0.0316 µM) was 71.8%, the viability, T/C (second compound 0.1 µM, first compound 0.1 µM) was 60% and the viability, T/C (second compound 0.1 µM, first compound 0.316 µM) was 48.6%. It also gave a viability, T/C (second compound 0.1 µM, first compound 1 µM) of 44.5%, a viability, T/C (second compound 0.1 µM, first compound 3.16 µM) of 32.2% and a viability, T/C (second compound 0.1 µM, first compound 10 µM) of 24.6%. The viability, T/C (second compound 0.316 µM, first compound 0.0316 µM) was 73.3%, the viability, T/C (second compound 0.316 µM, first compound 0.1 µM) was 54.6% and the viability, T/C (second compound 0.316 µM, first compound 0.316 µM) was 52.7%. The viability, T/C (second compound 0.316 µM, first compound 1 µM) was 42.7%, the viability, T/C (second compound 0.316 µM, first compound 3.16 µM) was 36.6% and the viability, T/C (second compound 0.316 µM, first compound 10 µM) was 25.5%. The viability, T/C (second compound 1 µM, first compound 0.0316 µM) was 77.7%, the viability, T/C (second compound 1 µM, first compound 0.1 µM) was 45.8% and the viability, T/C (second compound 1 µM, first compound 0.316 µM) was 47.8%. It also gave a viability, T/C (second compound 1 µM, first compound 1 µM) of 39.3%, a viability, T/C (second compound 1 µM, first compound 3.16 µM) of 38.2% and a viability, T/C (second compound 1 µM, first compound 10 µM) of 27.3%. It also gave a viability, T/C (second compound 3.16 µM, first compound 0.0316 µM) of 62.9%, a viability, T/C (second compound 3.16 µM, first compound 0.1 µM) of 57.2% and a viability, T/C (second compound 3.16 µM, first compound 0.316 µM) of 51%. For the same compound, the viability, T/C (second compound 3.16 µM, first compound 1 µM) was 43.2%, the viability, T/C (second compound 3.16 µM, first compound 3.16 µM) was 38.9% and the viability, T/C (second compound 3.16 µM, first compound 10 µM) was 32.3%. The viability, T/C (second compound 10 µM, first compound 0.0316 µM) was 72.4%, the viability, T/C (second compound 10 µM, first compound 0.1 µM) was 68.2% and the viability, T/C (second compound 10 µM, first compound 0.316 µM) was 56.3%. For the same compound, the viability, T/C (second compound 10 µM, first compound 1 µM) was 42.3%, the viability, T/C (second compound 10 µM, first compound 3.16 µM) was 38.1% and the viability, T/C (second compound 10 µM, first compound 10 µM) was 31.7%.
`CC(=O)O[C@H]1C(=O)[C@@]2(C)[C@H]([C@H](OC(=O)c3ccccc3)[C@]3(O)C[C@H](OC(=O)[C@H](O)[C@@H](NC(=O)c4ccccc4)c4ccccc4)C(C)=C1C3(C)C)[C@]1(OC(C)=O)CO[C@@H]1C[C@@H]2O` was tested, and the viability, T/C (compound 0.00949 µM) was 51.9% and 53.3% and 40.6%, the viability, T/C (compound 0.03 µM) was 51% and 60.1% and 33.6% and the viability, T/C (compound 0.0949 µM) was 54.7% and 51.5% and 37.1%. The viability, T/C (compound 0.3 µM) was 52.4% and 50.6% and 36.6%, the viability, T/C (compound 0.949 µM) was 43.7% and 49.6% and 35.6% and the viability, T/C (compound 3 µM) was 49.5% and 56.1% and 39%.
With `CCCS(=O)(=O)Nc1ccc(F)c(C(=O)c2c[nH]c3ncc(-c4ccc(Cl)cc4)cc23)c1F` the viability, T/C (compound 0.0316 µM) was 74.9% and 85.2% and 120%, the viability, T/C (compound 0.1 µM) was 89.7% and 99.9% and 114% and the viability, T/C (compound 0.316 µM) was 84.1% and 105% and 81.2%. The viability, T/C (compound 1 µM) was 96.2% and 106% and 87.5%, the viability, T/C (compound 3.16 µM) was 62.4% and 72.5% and 71.5% and the viability, T/C (compound 10 µM) was 50% and 43.1% and 36.3%. For the same compound, the IC50 (curve of compound) was > 10 µM and 7.63 µM and 6.63 µM.
`COc1cc2cc(C(=O)CCC(=O)O)sc2cc1OC` was tested, and the viability, T/C (compound 0.0316 µM) was 105% and 116% and 128%, the viability, T/C (compound 0.1 µM) was 140% and 92% and 89.7% and the viability, T/C (compound 0.316 µM) was 89.4% and 92.1% and 94.9%. For the same compound, the viability, T/C (compound 1 µM) was 115% and 88.4% and 103%, the viability, T/C (compound 3.16 µM) was 79.9% and 80.8% and 98% and the viability, T/C (compound 10 µM) was 67.3% and 72.8% and 95.3%. For the same compound, the IC50 (curve of compound) was over 10 µM.
